The results in this text go back to ChEMBL document CHEMBL3400053, “trans-3,4-Disubstituted pyrrolidines as inhibitors of the human aspartyl protease renin. Part II: prime site exploration using an oxygen linker” (Bioorg Med Chem Lett, 2015).

For one data set, the target named is Pepsin A (Homo sapiens, UniProt P0DJD9). In words: Inhibition of pepsin A (unknown origin).
In the next data set the target is T1, Renin (Homo sapiens, UniProt P00797).
T1 sequence (P00797 whole entry): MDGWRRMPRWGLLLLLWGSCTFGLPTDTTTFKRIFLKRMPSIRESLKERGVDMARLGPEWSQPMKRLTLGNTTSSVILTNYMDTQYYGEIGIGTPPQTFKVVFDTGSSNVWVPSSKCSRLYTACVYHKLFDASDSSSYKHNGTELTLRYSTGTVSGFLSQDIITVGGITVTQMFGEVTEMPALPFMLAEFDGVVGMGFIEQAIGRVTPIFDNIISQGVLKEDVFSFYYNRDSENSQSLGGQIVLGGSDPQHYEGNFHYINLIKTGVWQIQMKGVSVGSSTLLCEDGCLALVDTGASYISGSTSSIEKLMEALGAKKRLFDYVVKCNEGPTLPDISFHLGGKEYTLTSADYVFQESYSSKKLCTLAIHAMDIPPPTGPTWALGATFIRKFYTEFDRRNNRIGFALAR
In words: Inhibition of human recombinant renin by TR-FRET assay. (TR-FRET usually uses a lanthanide donor and a delayed reading to cut background.)

The next data set addresses Cathepsin D (Homo sapiens, UniProt P07339). As to the kind of experiment: Inhibition of cathepsin D (unknown origin).
The test system of the next data set is Rattus norvegicus. In words: AUC (0 to 24 hrs) in cannulated fed Sprague-Dawley rat at 6 mg/kg, po. The data set is classed as ADME, organism-based, Plasma. More on the design: time < 24 hr, dose 6 mg/kg, route oral. The settings on record: in vivo.
Another data set addresses T2, Beta-secretase 2 (Homo sapiens, UniProt Q9Y5Z0).
T2 sequence (Q9Y5Z0 whole entry): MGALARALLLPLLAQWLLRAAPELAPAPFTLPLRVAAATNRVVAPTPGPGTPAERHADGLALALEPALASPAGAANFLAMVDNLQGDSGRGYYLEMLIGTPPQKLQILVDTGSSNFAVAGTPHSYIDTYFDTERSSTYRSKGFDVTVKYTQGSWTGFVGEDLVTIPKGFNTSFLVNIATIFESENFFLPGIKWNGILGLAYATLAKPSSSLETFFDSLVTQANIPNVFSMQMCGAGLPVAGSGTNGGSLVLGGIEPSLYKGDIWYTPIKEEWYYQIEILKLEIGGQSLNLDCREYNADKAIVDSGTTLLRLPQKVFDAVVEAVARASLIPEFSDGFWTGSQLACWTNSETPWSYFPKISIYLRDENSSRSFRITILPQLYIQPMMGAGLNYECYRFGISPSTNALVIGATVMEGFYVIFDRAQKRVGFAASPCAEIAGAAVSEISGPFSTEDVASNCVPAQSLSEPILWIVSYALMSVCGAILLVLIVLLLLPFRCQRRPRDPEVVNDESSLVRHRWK
In words: Inhibition of BACE2 (unknown origin).

Another data set concerns the target Cytochrome P450 2D6 (Homo sapiens, UniProt P10635). As to the kind of experiment: Inhibition of CYP2D6 (unknown origin). The data set is classed as ADME.
The target in another data set is T3, Cathepsin E (Homo sapiens, UniProt P14091).
T3 sequence (P14091 whole entry): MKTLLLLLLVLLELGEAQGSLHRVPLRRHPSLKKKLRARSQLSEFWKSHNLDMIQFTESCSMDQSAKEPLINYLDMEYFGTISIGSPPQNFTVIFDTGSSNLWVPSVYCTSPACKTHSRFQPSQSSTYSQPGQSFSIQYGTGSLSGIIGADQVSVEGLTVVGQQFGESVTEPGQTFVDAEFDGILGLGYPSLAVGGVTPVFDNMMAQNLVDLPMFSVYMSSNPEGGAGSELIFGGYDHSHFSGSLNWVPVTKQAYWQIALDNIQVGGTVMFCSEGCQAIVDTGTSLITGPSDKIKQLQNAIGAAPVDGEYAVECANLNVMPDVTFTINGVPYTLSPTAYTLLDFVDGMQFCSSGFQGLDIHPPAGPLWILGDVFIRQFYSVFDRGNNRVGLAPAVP
As to the kind of experiment: Inhibition of cathepsin E (unknown origin).

Sequence of Pepsin A (P0DJD9 whole entry): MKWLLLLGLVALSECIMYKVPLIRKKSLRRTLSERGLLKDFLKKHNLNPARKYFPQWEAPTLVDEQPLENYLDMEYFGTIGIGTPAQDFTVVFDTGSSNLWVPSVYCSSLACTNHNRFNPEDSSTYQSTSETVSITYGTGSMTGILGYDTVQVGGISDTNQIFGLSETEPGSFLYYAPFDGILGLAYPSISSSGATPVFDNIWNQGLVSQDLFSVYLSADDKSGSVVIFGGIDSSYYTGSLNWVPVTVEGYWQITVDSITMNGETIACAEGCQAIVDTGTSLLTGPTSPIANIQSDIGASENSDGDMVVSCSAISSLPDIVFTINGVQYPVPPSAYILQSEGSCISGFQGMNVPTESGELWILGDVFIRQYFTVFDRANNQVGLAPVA
Sequence of Cathepsin D (P07339 65-162 limits assumed): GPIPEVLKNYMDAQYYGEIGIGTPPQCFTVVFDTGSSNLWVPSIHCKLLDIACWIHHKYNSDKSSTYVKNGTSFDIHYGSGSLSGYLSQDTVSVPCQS
Sequence of Cathepsin D (P07339 169-412 limits assumed): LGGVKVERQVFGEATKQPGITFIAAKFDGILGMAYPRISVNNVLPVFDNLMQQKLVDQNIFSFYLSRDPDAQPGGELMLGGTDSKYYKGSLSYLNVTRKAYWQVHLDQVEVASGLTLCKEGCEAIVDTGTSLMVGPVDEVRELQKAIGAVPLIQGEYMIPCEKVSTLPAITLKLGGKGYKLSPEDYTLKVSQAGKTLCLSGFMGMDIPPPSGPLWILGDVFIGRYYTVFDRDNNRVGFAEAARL
Sequence of Cytochrome P450 2D6 (P10635 whole entry): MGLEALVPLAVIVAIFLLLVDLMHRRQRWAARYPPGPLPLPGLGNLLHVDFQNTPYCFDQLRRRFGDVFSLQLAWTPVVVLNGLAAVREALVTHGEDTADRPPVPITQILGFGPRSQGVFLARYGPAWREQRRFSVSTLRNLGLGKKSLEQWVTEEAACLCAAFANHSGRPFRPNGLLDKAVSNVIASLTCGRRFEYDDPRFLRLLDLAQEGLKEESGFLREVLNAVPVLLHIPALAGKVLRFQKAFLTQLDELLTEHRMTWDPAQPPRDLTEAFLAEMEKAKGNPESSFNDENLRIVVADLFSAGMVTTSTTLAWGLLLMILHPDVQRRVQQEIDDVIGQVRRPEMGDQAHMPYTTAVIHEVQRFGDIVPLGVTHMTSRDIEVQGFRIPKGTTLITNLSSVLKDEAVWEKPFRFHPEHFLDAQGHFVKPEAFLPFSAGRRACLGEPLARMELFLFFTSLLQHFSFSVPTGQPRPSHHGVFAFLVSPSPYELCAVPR

The term IC50 denotes the concentration at which inhibition is half-maximal. Broadly, the AUC is the area under the concentration-time curve, a measure of exposure. For the molecule `COCCCOc1cc(C(=O)N(C[C@@H]2CNC[C@H]2OC(=O)NCc2ccccc2)C(C)C)ccc1OC`, the IC50 against Pepsin A is over 30 µM; at Renin it was 0.04 µM; against Cathepsin D, over 30 µM; at Beta-secretase 2, over 30 µM; against Cytochrome P450 2D6, over 20 µM; at Cathepsin E, over 30 µM. Further, the AUC in the data set on Rattus norvegicus came to 0.468 µM·h.
